Tests used:
[1] = tested on: Staphylococcus aureus (ATCC 6538); assay: Antimicrobial effect of ClO2 compositions with/without heptanoic acid, S. aureus; type: cell-based; details: no secondary antimicrobial fatty acid added
Description: (§1) This experiment was used to determine what affect the addition of a fatty acid, the secondary antimicrobial agent, had on the effectiveness of the compositions in killing E. Coli and S. Aureus. The secondary fatty acid used was heptanoic acid at a level of 1% in examples 1, 2 and 3. The comparative examples, A, B and C, contained no fatty acid.
(§2) Three compositions were prepared from each base solution. Sodium chlorite was added in amounts that were sufficient to form compositions having 200 ppm, 300 ppm and 400 ppm ClO2. Six compositions were prepared in all.
(§3) The compositions were then tested for the antimicrobial effect against Staphylococcus aureus and Escherichia coli. The inoculum numbers in CFU/mL were 1.1×10^7 (ATCC 6538) and 1.0×10^8 (ATCC 11229). The test temperature was 25° C. and the solution pH was 5.5. The following Table II illustrates the results obtained.

[2] = tested on: Escherichia coli (ATCC 11229); assay: Antimicrobial effect of ClO2 compositions with/without heptanoic acid, E. coli; type: cell-based; details: no secondary antimicrobial fatty acid added
Description: as §1, §2, §3

S. aureus = assay: Effect of various acids on antimicrobial activity of the base solution (no chlorine dioxide), S. aureus; type: cell-based, Staphylococcus aureus; details: used alone at 1%
Description: (§4) The effect of various acids on the antimicrobial activity of the base solution was measured. No chlorine dioxide was added to the compositions. Acids were added to each sample at a concentration of 1%. Example 4 had 1% heptanoic acid and Comparative Example D had 1% lactic acid. Examples 5 and 6 utilized blends of acids. The antimicrobial activity of each was measured and compared in the following Table III.

E. coli = assay: Effect of various acids on antimicrobial activity of the base solution (no chlorine dioxide), E. coli; type: cell-based, Escherichia coli; details: used alone at 1%
Description: as §4

SMILES	concentration level of chlorine dioxide that provided an effective antimicrobial kill of S. Aureus [1] [ppm]	concentration level of chlorine dioxide that provided an effective antimicrobial kill of E. Coli [2] [ppm]	effect against the microbes (S. aureus), in words (S. aureus)	effect against the microbes (E. coli), in words (E. coli)
[O][Cl+][O-] [chlorine dioxide]	300	300	–	–
CC(O)C(=O)O (stereo not shown) [lactic acid]	–	–	does not have much of any effect	does not have much of any effect

Source: US6582734B1, “Antimicrobial composition useful for the treatment of bovine mastitis” (Ecolab Inc., priority 2000, dated 2003)
